Reference: ChEMBL document CHEMBL4627264, “Synthesis and evaluation of novel radioiodinated PSMA targeting ligands for potential radiotherapy of prostate cancer” (Bioorg Med Chem, 2020)
The source made the active and inactive calls. The calls are words filed in the database; no cut-off is given here.

Tests used:
[1] = Drug uptake in kidney of CD-1 nude mouse xenografted with PC3-PIP cells at 6 nM to 9 nM, iv measured at 1 hr using 125I-labelled compound by gamma counter analysis; type: ADME, organism-based; conditions: in vivo, 0.006 µM
[2] = Drug uptake in tumor of CD-1 nude mouse xenografted with PC3-PIP cells at 6 nM to 9 nM, iv measured at 1 hr using 125I-labelled compound by gamma counter analysis; type: ADME, organism-based, Neoplasm; conditions: in vivo, 0.006 µM
[3] = target: T1, Glutamate carboxypeptidase 2 (Homo sapiens, UniProt Q04609); test: Binding affinity to PSMA in human PC3-PIP cells assessed as drug uptake per 10^6 cells at 0.2 nM incubated for 2 hrs followed by compound washout measured using 125I-labelled compound by gamma counter analysis; type: ADME, cell-based; conditions: 0.0002 µM
Target sequence in this assay (Q04609 whole entry): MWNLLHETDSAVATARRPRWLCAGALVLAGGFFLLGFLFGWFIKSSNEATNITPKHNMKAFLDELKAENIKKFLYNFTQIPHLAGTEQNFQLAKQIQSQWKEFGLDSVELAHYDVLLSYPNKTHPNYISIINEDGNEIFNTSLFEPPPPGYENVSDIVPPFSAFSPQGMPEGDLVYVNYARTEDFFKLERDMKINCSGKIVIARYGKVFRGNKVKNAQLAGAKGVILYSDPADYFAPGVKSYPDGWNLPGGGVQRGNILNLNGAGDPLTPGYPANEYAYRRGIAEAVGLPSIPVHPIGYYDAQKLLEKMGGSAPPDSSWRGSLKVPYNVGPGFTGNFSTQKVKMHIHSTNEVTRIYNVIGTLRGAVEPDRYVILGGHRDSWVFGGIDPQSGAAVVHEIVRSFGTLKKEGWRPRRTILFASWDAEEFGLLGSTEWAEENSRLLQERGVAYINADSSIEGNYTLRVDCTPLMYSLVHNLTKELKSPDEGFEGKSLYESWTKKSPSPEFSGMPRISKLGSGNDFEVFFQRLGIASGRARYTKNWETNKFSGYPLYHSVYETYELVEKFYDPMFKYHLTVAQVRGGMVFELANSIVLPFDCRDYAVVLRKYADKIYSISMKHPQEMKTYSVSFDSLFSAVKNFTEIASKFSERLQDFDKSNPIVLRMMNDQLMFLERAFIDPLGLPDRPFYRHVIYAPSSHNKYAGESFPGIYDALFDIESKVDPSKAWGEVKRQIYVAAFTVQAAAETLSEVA

[4] = Drug uptake in tumor of CD-1 nude mouse xenografted with PC3-PIP cells at 6 nM to 9 nM, iv measured at 4 hrs using 125I-labelled compound by gamma counter analysis; type: ADME, organism-based, Neoplasm; conditions: in vivo, 0.006 µM
[5] = Drug uptake in kidney of CD-1 nude mouse xenografted with PC3-PIP cells at 6 nM to 9 nM, iv measured at 4 hrs using 125I-labelled compound by gamma counter analysis; type: ADME, organism-based; conditions: in vivo, 0.006 µM
[6] = Drug internalization in human PC3-PIP cells at 0.2 nM incubated for 2 hrs followed by compound washout measured using 125I-labelled compound by gamma counter analysis; type: ADME, cell-based; conditions: 0.0002 µM
[7] = Drug internalization in human PC3-PIP cells at 0.2 nM incubated for 1 hr followed by compound washout measured using 125I-labelled compound by gamma counter analysis; type: ADME, cell-based; conditions: 0.0002 µM
[8] = target: T1, Glutamate carboxypeptidase 2; test: Binding affinity to PSMA in human PC3-PIP cells assessed as drug uptake per 10^6 cells at 0.2 nM incubated for 1 hr followed by compound washout measured using 125I-labelled compound by gamma counter analysis; type: ADME, cell-based; conditions: 0.0002 µM
Target sequence in this assay (Q04609 whole entry): as above

[9] = Drug uptake in kidney of CD-1 nude mouse xenografted with PC3-PIP cells at 6 nM to 9 nM, iv measured after 2 mins to 1440 mins using 125I-labelled compound by gamma counter analysis; type: ADME, organism-based; conditions: in vivo, 0.006 µM
[10] = Drug uptake in human PC3-PIP cells at 0.2 nM incubated for 1 hr in presence of PSMA inhibitor PSMA-617 measured using 125I-labelled compound by gamma counter analysis; type: ADME, cell-based; conditions: 0.0002 µM
[11] = Drug uptake in human PC3-PIP cells at 0.2 nM incubated prior to compound washout measured using 125I-labelled compound by gamma counter analysis; type: ADME, cell-based; conditions: 0.0002 µM, TDE = time-dependent effect
[12] = Drug uptake in liver of CD-1 nude mouse xenografted with PC3-PIP cells at 6 nM to 9 nM, iv measured at 1 hr using 125I-labelled compound by gamma counter analysis; type: ADME, organism-based; conditions: in vivo, 0.006 µM
[13] = Drug uptake in tumor of CD-1 nude mouse xenografted with PC3-PIP cells at 6 nM to 9 nM, iv measured at 24 hrs using 125I-labelled compound by gamma counter analysis; type: ADME, organism-based, Neoplasm; conditions: in vivo, 0.006 µM
[14] = Drug uptake in liver of CD-1 nude mouse xenografted with PC3-PIP cells at 6 nM to 9 nM, iv measured at 4 hrs using 125I-labelled compound by gamma counter analysis; type: ADME, organism-based; conditions: in vivo, 0.006 µM
[15] = Drug uptake in kidney of CD-1 nude mouse xenografted with PC3-PIP cells at 6 nM to 9 nM, iv measured at 24 hrs using 125I-labelled compound by gamma counter analysis; type: ADME, organism-based; conditions: in vivo, 0.006 µM
[16] = Drug uptake in liver of CD-1 nude mouse xenografted with PC3-PIP cells at 6 nM to 9 nM, iv measured at 24 hrs using 125I-labelled compound by gamma counter analysis; type: ADME, organism-based; conditions: in vivo, 0.006 µM
[17] = target: T1, Glutamate carboxypeptidase 2; test: Inhibition of […] binding to PSMA in human PC3-PIP cells at 0.2 nM incubated for 1 hr; type: cell-based
Target sequence in this assay (Q04609 whole entry, looked up): as the sequence (Q04609 whole entry) above

[18] = target: T1, Glutamate carboxypeptidase 2; test: Displacement of [125I]MIP-1095 from PSMA in human PC3-PIP cells after 1 hr by gamma counter analysis; type: cell-based
Target sequence in this assay (Q04609 whole entry): as above

[19] = Drug uptake in large intestine of CD-1 nude mouse xenografted with PC3-PIP cells at 6 nM to 9 nM, iv measured at 4 hrs using 125I-labelled compound by gamma counter analysis; type: ADME, organism-based; conditions: in vivo, 0.006 µM
[20] = Drug uptake in liver of CD-1 nude mouse xenografted with PC3-PIP cells at 6 nM to 9 nM, iv measured at 2 mins using 125I-labelled compound by gamma counter analysis; type: ADME, organism-based; conditions: in vivo, 0.006 µM
[21] = Drug uptake in large intestine of CD-1 nude mouse xenografted with PC3-PIP cells at 6 nM to 9 nM, iv measured at 1 hr using 125I-labelled compound by gamma counter analysis; type: ADME, organism-based; conditions: in vivo, 0.006 µM
[22] = Drug uptake in small intestine of CD-1 nude mouse xenografted with PC3-PIP cells at 6 nM to 9 nM, iv measured at 1 hr using 125I-labelled compound by gamma counter analysis; type: ADME, organism-based; conditions: in vivo, 0.006 µM
[23] = Clearance in tumor of CD-1 nude mouse xenografted with PC3-PIP cells at 6 nM to 9 nM, iv measured at 4 hrs using 125I-labelled compound by gamma counter analysis; type: ADME, organism-based, Neoplasm; conditions: in vivo, 0.006 µM
[24] = Drug uptake in spleen of CD-1 nude mouse xenografted with PC3-PIP cells at 6 nM to 9 nM, iv measured at 4 hrs using 125I-labelled compound by gamma counter analysis; type: ADME, organism-based; conditions: in vivo, 0.006 µM
[25] = Uptake in kidney of CD-1 nude mouse xenografted with PC3-PIP cells at 6 nM to 9 nM, iv measured at 1 hr using 125I-labelled compound by gamma counter analysis; conditions: in vivo, 0.006 µM
[26] = Uptake in kidney of CD-1 nude mouse xenografted with PC3-PIP cells at 6 nM to 9 nM, iv measured at 24 hrs using 125I-labelled compound by gamma counter analysis; conditions: in vivo, 0.006 µM
[27] = Uptake in kidney of CD-1 nude mouse xenografted with PC3-PIP cells at 6 nM to 9 nM, iv measured at 4 hrs using 125I-labelled compound by gamma counter analysis; conditions: in vivo, 0.006 µM

| SMILES | Drug uptake [3] | Drug uptake [6] | Drug uptake [7] | Drug uptake [8] | Drug uptake [9] | Drug uptake [10] | Drug uptake [11] | inhibition [17] | other results |
| --- | --- | --- | --- | --- | --- | --- | --- | --- | --- |
| O=C(O)CC[C@H](NC(=O)N[C@@H](CCCCNC(=O)[C@H](Cc1ccccc1)NC(=O)[C@H](CCC(=O)O)NC(=O)c1ccc([125I])cc1)C(=O)O)C(=O)O | 76 %ID | 45% | 36% | 43 %ID | Active | Not Active | Tde |  | Drug uptake [1]: 41.4 % ID/g; Drug uptake [2]: 10.7 % ID/g; Drug uptake [4]: 5.17 % ID/g; Drug uptake [5]: 25.4 % ID/g |
| O=C(O)CC[C@H](NC(=O)N[C@@H](CCCCNC(=O)[C@H](Cc1ccccc1)NC(=O)[C@H](CCC(=O)O)NC(=O)[C@H](CCC(=O)O)NC(=O)c1ccc([125I])cc1)C(=O)O)C(=O)O | 75 %ID | 47% | 37% | 43 %ID | Active | Not Active | Tde |  | Drug uptake [12]: 7.18 % ID/g; Drug uptake [13]: 17 % ID/g; Drug uptake [1]: 71.8 % ID/g; Drug uptake [2]: 18.5 % ID/g; Drug uptake [4]: 23.1 % ID/g; Drug uptake [14]: 3.64 % ID/g; Drug uptake [5]: 80.3 % ID/g; Drug uptake [15]: 6.91 % ID/g; Drug uptake [16]: 0.17 % ID/g |
| O=C(O)CC[C@H](NC(=O)N[C@@H](CCCCNC(=O)[C@H](Cc1ccccc1)NC(=O)COc1ccc(C[C@H](NC(=O)[C@H](CCC(=O)O)NC(=O)c2ccc(I)cc2)C(=O)O)cc1)C(=O)O)C(=O)O |  |  |  |  |  |  |  | Active |  |
| O=C(O)CC[C@H](NC(=O)N[C@@H](CCCCNC(=O)[C@H](Cc1ccccc1)NC(=O)COc1ccc(C[C@H](NC(=O)Nc2ccc(I)cc2)C(=O)O)cc1)C(=O)O)C(=O)O |  |  |  |  |  |  |  | Active | IC50 [18]: 13 nM |
| O=C(O)CC[C@H](NC(=O)N[C@@H](CCCCNC(=O)Nc1ccc([125I])cc1)C(=O)O)C(=O)O | 53 %ID | 47% | 38% | 40 %ID | Active | Not Active | Tde |  | Drug uptake [12]: 10.2 % ID/g; Drug uptake [14]: 6.45 % ID/g; Drug uptake [16]: 0.71 % ID/g |
| O=C(O)CC[C@H](NC(=O)N[C@@H](CCCCNC(=O)Nc1ccc(I)cc1)C(=O)O)C(=O)O [MIP-1095] |  |  |  |  |  |  |  |  | IC50 [18]: 3 nM |
| O=C(O)CC[C@H](NC(=O)N[C@@H](CCCCNC(=O)[C@H](Cc1ccccc1)NC(=O)COc1ccc(C[C@H](NC(=O)CNC(=O)c2ccc([125I])cc2)C(=O)O)cc1)C(=O)O)C(=O)O | 52 %ID | 55% | 51% | 36 %ID | Not Active | Not Active | Tde |  | Drug uptake [19]: 9.98 % ID/g; Drug uptake [20]: 29.4 % ID/g; Drug uptake [21]: 21.6 % ID/g |
| O=C(O)CC[C@H](NC(=O)N[C@@H](CCCCNC(=O)[C@H](Cc1ccccc1)NC(=O)COc1ccc(C[C@H](NC(=O)[C@H](CCC(=O)O)NC(=O)[C@H](CCC(=O)O)NC(=O)c2ccc(I)cc2)C(=O)O)cc1)C(=O)O)C(=O)O |  |  |  |  |  |  |  | Active | IC50 [18]: 3.52 nM |
| O=C(O)CC[C@H](NC(=O)N[C@@H](CCCCNC(=O)[C@H](Cc1ccccc1)NC(=O)COc1ccc(C[C@H](NC(=O)Nc2ccc([125I])cc2)C(=O)O)cc1)C(=O)O)C(=O)O | 60 %ID | 76% | 73% | 31 %ID | Not Active | Not Active | Tde |  | Drug uptake [19]: 51.4 % ID/g; Drug uptake [22]: 49.7 % ID/g; Drug uptake [20]: 50.6 % ID/g |
| O=C(O)CC[C@H](NC(=O)N[C@@H](CCCCNC(=O)[C@H](Cc1ccccc1)NC(=O)COc1ccc(C[C@H](NC(=O)[C@H](CCC(=O)O)NC(=O)c2ccc([125I])cc2)C(=O)O)cc1)C(=O)O)C(=O)O | 76 %ID | 60% | 58% | 49 %ID | Active | Not Active | Tde |  | Drug uptake [1]: 174.6 % ID/g; Drug uptake [2]: 26.2 % ID/g; CL [23]: 45%; Drug uptake [4]: 14.3 % ID/g; Drug uptake [5]: 114.7 % ID/g; Drug uptake [24]: 15.4 % ID/g |
| O=C(O)CC[C@H](NC(=O)N[C@@H](CCCCNC(=O)[C@H](Cc1ccccc1)NC(=O)COc1ccc(C[C@H](NC(=O)CNC(=O)c2ccc(I)cc2)C(=O)O)cc1)C(=O)O)C(=O)O |  |  |  |  |  |  |  | Active | IC50 [18]: 1.33 nM |
| O=C(O)CC[C@H](NC(=O)N[C@@H](CCCCNC(=O)[C@H](Cc1ccccc1)NC(=O)[C@H](CCC(=O)O)NC(=O)[C@H](CCC(=O)O)NC(=O)c1ccc(I)cc1)C(=O)O)C(=O)O |  |  |  |  |  |  |  | Active |  |
| O=C(O)CC[C@H](NC(=O)N[C@@H](CCCCNC(=O)[C@H](Cc1ccccc1)NC(=O)[C@H](CCC(=O)O)NC(=O)c1ccc(I)cc1)C(=O)O)C(=O)O |  |  |  |  |  |  |  | Active |  |
| O=C(O)CC[C@H](NC(=O)N[C@@H](CCCCNC(=O)[C@H](Cc1ccccc1)NC(=O)COc1ccc(C[C@H](NC(=O)[C@H](CCC(=O)O)NC(=O)[C@H](CCC(=O)O)NC(=O)c2ccc([125I])cc2)C(=O)O)cc1)C(=O)O)C(=O)O | 67 %ID | 64% | 62% | 39 %ID | Active | Not Active | Tde |  | Drug uptake [13]: 11.1 % ID/g; Drug uptake [2]: 17.2 % ID/g; Drug uptake [4]: 17.4 % ID/g; Drug uptake [25]: 127.8 % ID/g; Drug uptake [26]: 136.4 % ID/g; Drug uptake [27]: 138.1 % ID/g |
